# Assay results reported in PMC12467382, “Synthesis and Bioevaluation of Chalcones as Broad-Spectrum Antiviral Compounds Against Single-Stranded RNA Viruses” (Biomolecules, 2025).
# Key:
# mTOR signaling = test: Western blot of prps6 and rps6 as readouts of mTOR signaling in PANC-1 cells; format: cell-based; settings: 72 h, chalcones 10 µM, rapamycin 10 nM
# Experimental: PANC-1 cells were cultured in 6-well dishes and were lysed using modified radioimmunoprecipitation assay (RIPA) buffer (20 mM HEPES, pH 7.0, 150 mM NaCl, 1 mM EDTA, 1% NP-40, 1% deoxycholate, and 0.1% sodium dodecyl sulfate [SDS]) containing a complete protease inhibitor cocktail (Roche, Mannheim, Germany) and PhosSTOP phosphatase inhibitor cocktail (Roche, Mannheim, Germany). Protein concentrations were determined using the bicinchoninic acid (BCA) protein assay kit (Pierce, Rockford, IL, USA) according to manufacturer’s instructions. Cell lysates with 25 µg of protein were resolved on 12% sodium dodecyl sulfate-polyacrylamide gel electrophoresis (SDS-PAGE) gels and electro-transferred onto polyvinylidene difluoride (PVDF) membranes (Trans-Blot Turbo Transfer System, BioRad, Hercules, CA, USA). The samples were probed with rabbit monoclonal antibodies for the P-rps6 (1:1000) protein (Cell Signaling, Danvers, MA, USA) and mouse monoclonal antibodies for rps6 (1:1000) (Cell Signaling) and β-actin (1:5000) (Abcam, Waltham, MA, USA) proteins. Blots were visualized using anti-rabbit or anti-mouse horseradish peroxidase (HRP)-conjugated antibodies (Cell Signaling) and chemiluminescence reagent (Thermo Fisher Scientific, Waltham, MA, USA).
# PANC-1 cells were chosen for this study as they are highly dependent on mTOR for their growth. PANC-1 cells were cultured and treated with the positive control rapamycin (10 nM) and chalcones NM5, 8a, 8o, 8s, 8v, and 8w (10 μM) for 72 h. Rapamycin and the chalcones were dissolved in 100% DMSO and dosed so that the final DMSO concentration was 0.1%. Cell lysates were collected and analyzed to determine the relative protein expression levels of rps6, prps6, and β-actin as a loading control (see Figure 12).
# LACV = LACV Gc protein expression in Hs27 cells by flow cytometry; format: cell-based, La Crosse Virus; settings: MOI 10, 24 hpi; for Cells expressing LACV glycoprotein Gc: 10 µM before and after infection, DMSO ~60%
# Experimental: La Crosse Virus (LACV) was kindly provided by Andrew Pekosz (Johns Hopkins Bloomberg School of Public Health, Baltimore, MD, USA), grown at 28 °C in C6/36 cells derived from the larvae of the Asian tiger mosquito (ATCC), and titered at 37 °C on Vero cells as previously described. Infections were carried out in DMEM containing 2% HI FBS for 1 h or mock infected with media alone. Cells were washed with PBS and cultured in DMEM containing 2% HI FBS.
# (§1) For cytotoxicity assays, cells were stained with propidium iodide (PI) at a dilution of 1:100. Cell viability was determined via flow cytometry using the CytoFLEX (Beckman Coulter, Brea, CA, USA). CytExpert software (Beckman Coulter, version 2.4) was used to analyze independent events. PIV5 infection was monitored using flow cytometry via the FITC channel by analyzing GFP expression of individual cells. ZIKV infection was monitored utilizing Flavivirus group antigen–antibody (D1-4G2-4-15; Novus Biologicals, Littleton, CO, USA) staining for the ZIKV envelope protein. Cells were fixed and permeabilized using eBioscience Intracellular Fixation and Permeabilization Buffer (Invitrogen, Thermo Fisher Scientific, MA, USA) according to the manufacturer’s instructions. Secondary staining was performed using an anti-Alexa Fluor 488 (AF488) antibody (Invitrogen, Thermo Fisher Scientific, MA, USA). OC43 infection was monitored utilizing a primary antibody targeted toward the OC43 nucleocapsid protein (NP, MAB9013, Sigma-Aldrich, St. Louis, MO, USA). Secondary staining was performed using an AF488 antibody. Cells were fixed and permeabilized as previously described. LACV infection was monitored utilizing an anti-LACV Gc 807.31ab antibody kindly provided by Andrew Pekosv. Secondary staining was performed using an AF488 antibody. Cells were fixed and permeabilized as previously described.
# (§2) To expand these findings, we evaluated whether these top-performing chalcones inhibited the replication of other RNA viruses. […]
# ZIKV = ZIKV envelope (E) protein expression in Hs27 cells by flow cytometry; format: cell-based, Zika Virus; settings: MOI 5, 24 hpi; for Cells expressing ZIKV envelope (E) protein: 10 µM before and after infection, DMSO 15%
# Experimental: The MR766 strain of Zika Virus (ZIKV) (ATCC-VR84, Manassas, VA, USA) was grown and titered at 37 °C using Vero cells as previously described. Infections were carried out in DMEM containing 10% BSA for 1 h. Cells were then washed with PBS and cultured in DMEM containing 10% HI FBS.
# as §1
# To expand these findings, we evaluated whether these top-performing chalcones inhibited the replication of other RNA viruses. Briefly described, Hs27 cells were left untreated, treated with DMSO as a control, or treated with the chalcones 8a, 8o, or 8p at 10 μM for 24 h. Cells were then infected with the Bunyavirus LACV, the Flavivirus ZIKV, or the Coronavirus OC43 at high MOIs, as listed in Figure 10. […]
# OC43 = test: Coronavirus OC43 NP protein expression in Hs27 cells by flow cytometry; format: cell-based, Human Coronavirus OC43; settings: MOI 50, 24 hpi; for Cells expressing OC43 NP protein: 10 µM before and after infection, DMSO ~65%
# Experimental: Human Coronavirus OC43 (ATCC, catalog number VR-1558) was grown in a human colorectal adenocarcinoma cell line (HCT-8; ATCC, Manassas, Virginia, catalog #CCL-244) at 33 °C as previously described. OC43 titers were determined at 33 °C via 50% Tissue Culture Infectious Dose assays (TCID50) on confluent human rhabdomyosarcoma (RD; ATCC, Manassas, Virginia, catalog # CCL-136) cells in 96-well plates as previously described. Infections were carried out in DMEM containing 10% BSA for 1 h at 33 °C. Cells were then washed with PBS, cultured in DMEM supplemented with 2% HI FBS, and incubated at 33 °C.
# For cytotoxicity assays, cells were stained with propidium iodide (PI) at a dilution of 1:100. Cell viability was determined via flow cytometry using the CytoFLEX (Beckman Coulter, Brea, CA, USA). CytExpert software (Beckman Coulter, version 2.4) was used to analyze independent events. PIV5 infection was monitored using flow cytometry via the FITC channel by analyzing GFP expression of individual cells. ZIKV infection was monitored utilizing Flavivirus group antigen–antibody (D1-4G2-4-15; Novus Biologicals, Littleton, CO, USA) staining for the ZIKV envelope protein. Cells were fixed and permeabilized using eBioscience Intracellular Fixation and Permeabilization Buffer (Invitrogen, Thermo Fisher Scientific, MA, USA) according to the manufacturer’s instructions. Secondary staining was performed using an anti-Alexa Fluor 488 (AF488) antibody (Invitrogen, Thermo Fisher Scientific, MA, USA). OC43 infection was monitored utilizing a primary antibody targeted toward the OC43 nucleocapsid protein (NP, MAB9013, Sigma-Aldrich, St. Louis, MO, USA). Secondary staining was performed using an AF488 antibody. Cells were fixed and permeabilized as previously described. LACV infection was monitored utilizing an anti-LACV Gc 807.31ab antibody kindly provided by Andrew Pekosv. Secondary staining was performed using an AF488 antibody. […]
# as §2
# Vero cells = test: Propidium iodide (PI) staining cytotoxicity in Vero cells by flow cytometry; format: cell-based; settings: 24 h, concentration giving 10% PI+ cells
# Experimental: We also extended the analysis of chalcone anti-viral effects to the widely used Vero cell line. […] The quotients of these values were determined to compare the compounds directly while accounting for both cytotoxicity and efficacy against PIV5.
# [1] = test system: human cytomegalovirus (HCMV); set-up: method as in PMID 23768434; settings: cited from earlier work
Compound,prps6 expression relative to DMSO control (mTOR signaling),total rps6 protein expression relative to DMSO control (mTOR signaling),PI MTC (Vero cells) [µM],other results
"COc1ccc(Br)cc1/C=C/C(=O)c1c(O)cccc1OCCC(C)C [Chalcone 8s, (2E)-3-(5-Bromo-2-Methoxy-Phenyl)-1-[2-Hydroxy-6-(3-Methyl-Butoxy)-Phenyl]-Propenone]",no significant change,significantly increased,–,–
COc1ccccc1/C=C/C(=O)c1ccccc1O [Chalcone 8a],no significant change,no significant difference,–,"Inhibition of viral gene expression, LACV (LACV; 10 µM): did not inhibit viral gene expression; Inhibition of viral gene expression, ZIKV (ZIKV; 10 µM): did not inhibit viral gene expression; Effect on OC43 NP expression (OC43; 10 µM): significant inhibitory effects"
"CCOc1ccc(Br)cc1/C=C/C(=O)c1c(O)cccc1OCc1ccc(-c2ccccc2)cc1 [Chalcone 8v, (2E)-1-[2-(Biphenyl-4-Ylmethoxy)-6-Hydroxy-Phenyl]3-(5-Bromo-2-Ethoxy-Phenyl)-Propenone]",no significant change,no significant difference,–,–
COc1ccc(Br)cc1/C=C/C(=O)c1c(O)cccc1OCc1ccccc1 [Chalcone 8l],–,–,4.0,–
"COc1ccc(Br)cc1/C=C/C(=O)c1c(O)cccc1OCc1ccc(-c2ccccc2)cc1 [Chalcone 8w, (2E)-1-[2-(Biphenyl-4-Ylmethoxy)-6-Hydroxy-Phenyl]3-(5-Bromo-2-Methoxy-Phenyl)-Propenone]",no significant change,no significant difference,–,–
CCOc1ccc(Cl)cc1/C=C/C(=O)c1c(O)cccc1OCc1ccccc1 [Chalcone 8p],–,–,3.2,Cells expressing LACV glycoprotein Gc (LACV): below 10%; Cells expressing ZIKV envelope (E) protein (ZIKV): ~ 2%; Cells expressing OC43 NP protein (OC43): 1-2%
CCOc1ccc(Br)cc1/C=C/C(=O)c1c(O)cccc1OCc1ccccc1 [Chalcone 8o],no significant change,no significant difference,2.5,Cells expressing LACV glycoprotein Gc (LACV): below 10%; Cells expressing ZIKV envelope (E) protein (ZIKV): ~ 2%; Cells expressing OC43 NP protein (OC43): 1-2%; Antiviral activity against HCMV [1]: had efficacy as an antiviral agent
COc1ccc(Br)cc1/C=C/C(=O)c1c(O)cccc1OC [Chalcone 8f],–,–,6.8,–
